Results taken from patent publication US20090175914A1, “Salts or Complexes of Methyl Donors With Phytic Acid or Its Derivatives and Method for the Synthesis Thereof” (priority 2005, published 2009).

Tests used:
[1] = Stability trial, 5 days at 53° C., degradation evaluated by HPCEC-UV; assay type: physicochemical
Experimental: The evaluation of the degradation was carried out by HPCEC-UV analysis using 0.5M (pH 4) ammonium formiate as an eluent, a flow of 1.2 ml/min, and a Supelcosil LC-SCX column (25 cm, 4.6 mm, 5 micron). The product thus obtained was subjected to stability trials according to a procedure similar to the one adopted for the Comparative Example above. […] Also in this case, the evaluation of the degradation was carried out by HPCEC-UV analysis using 0.5M ammonium formiate (pH 4) as an eluent, a flow of 1.2 ml/min, and a Supelcosil LC-SCX column (25 cm, 4.6 mm, 5 μm).

[2] = test system: peripheral neuropathies caused by diabetes; details: 500 mg twice a day for two weeks; cited from earlier work

Molecule: SAMe salt with phytic acid [SAMe phytate complex]
- SAMe ion ([1]; Lot 1, after 5 days at 53° C.): 23.2 % p/p
- % Variation of SAMe ion ([1]; Lot 1, after 5 days at 53° C. vs initial): −7.9%
- SAMe ion ([1]; Lot 1, immediately after preparation): 25.2 % p/p
- SAMe ion ([1]; Lot 2, after 5 days at 53° C.): 23.3 % p/p
- % Variation of SAMe ion ([1]; Lot 2, after 5 days at 53° C. vs initial): −7.2%
- SAMe ion ([1]; Lot 2, immediately after preparation): 25.1 % p/p
- SAMe ion ([1]; Lot 3, after 5 days at 53° C.): 23.2 % p/p
- % Variation of SAMe ion ([1]; Lot 3, after 5 days at 53° C. vs initial): −8.3%
- SAMe ion ([1]; Lot 3, immediately after preparation): 25.3 % p/p
- SAMe ion ([1]; Mean of 3 lots, after 5 days at 53° C.): 23.2 % p/p
- % Variation of SAMe ion ([1]; Mean of 3 lots, after 5 days at 53° C. vs initial): −7.8%
- SAMe ion ([1]; Mean of 3 lots, immediately after preparation): 25.2 % p/p

Molecule: O[C@H]1[C@H](O)[C@@H](O)[C@H](O)[C@@H](O)[C@H]1O [inositol]
- therapeutic result [2]: considerable results

Molecule: SAMe Phytate Salt [Example 1]
- stability ([1]; 5 days at 53° C.): very stable
